According to US9566312B2, “Cyclic peptides and use as medicines” (priority 2012, dated 2017):
Where two headings read alike, the source gives them in different places. Starred links: 1 amine or outer side, 2 acyl side, 3 side chain; linkers in the order of their positions; H or OH if unused. Non-standard residues stand in square brackets, D forms with d. Residues, ends and D or L forms follow the SMILES beside them. NMeAbu(3S-Me,4-OC2H4Mor) = CN[C@H](C(=O)O)[C@H](C)COCCN1CCOCC1; X16 = C[C@H](CN1CCN(S(C)(=O)=O)CC1)[C@@H](C(=O)[*:2])N(C)[*:1]; X5 = C[C@H](COC(=O)N1CCN(C)CC1)[C@@H](C(=O)[*:2])N(C)[*:1]; X4 = C[C@H](CS(C)(=O)=O)[C@@H](C(=O)[*:2])N(C)[*:1]; X3 = C[C@H](CN1CCOCC1)[C@@H](C(=O)[*:2])N(C)[*:1]; MeBmt = C/C=C/C[C@@H](C)[C@@H](O)[C@H](NC)C(=O)O; X2 = COCC[C@@H](C)[C@@H](C(=O)[*:2])N(C)[*:1]; X77 = COC[C@H](C)[C@@H](C(=O)[*:2])N(C)[*:1]; NMeL = CN[C@@H](CC(C)C)C(=O)O; NMeV = CN[C@H](C(=O)O)C(C)C; dNMeA = CN[C@H](C)C(=O)O; Abu = CC[C@H](N)C(=O)O

Key:
[1] = target: cyclophilin B (CypB) (Homo sapiens (Human), UniProt P23284); test: Inhibitor binding to cyclophilin proteins by SPR, CypB; parameters: unit not given here; conditions: 1:1 binding model
Chain of cyclophilin B (CypB) (P23284 34-216): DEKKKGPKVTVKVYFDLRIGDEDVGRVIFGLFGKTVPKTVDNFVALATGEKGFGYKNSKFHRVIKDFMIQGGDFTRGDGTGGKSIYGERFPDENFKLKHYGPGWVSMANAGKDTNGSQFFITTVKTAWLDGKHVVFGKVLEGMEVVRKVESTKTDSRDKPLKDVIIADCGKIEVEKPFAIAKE
How it was run: (§1)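 Running buffer: 10 mM HEPES pH 7.4, 150 mM NaCl, 0.05% P20, 3% DMSO, with compound present. Capture of avi-tagged mono-biotinylated cyclophilin; single-cycle series, 1 min contact, 10 min dissociation. Rates and affinity fitted to a 1:1 interaction model.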

[2] = target: organic anion transporting polypeptide 1B1 (OATP1B1) (Homo sapiens (Human), UniProt Q9Y6L6); test: OATP assay in CHO-OATP1B1 cells;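 also: inhibition of probe substrate uptake into the cells, ten minutes exposure, accumulated substrate read by fluorescence once cells were lysed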
Chain of organic anion transporting polypeptide 1B1 (OATP1B1) (Q9Y6L6 whole entry): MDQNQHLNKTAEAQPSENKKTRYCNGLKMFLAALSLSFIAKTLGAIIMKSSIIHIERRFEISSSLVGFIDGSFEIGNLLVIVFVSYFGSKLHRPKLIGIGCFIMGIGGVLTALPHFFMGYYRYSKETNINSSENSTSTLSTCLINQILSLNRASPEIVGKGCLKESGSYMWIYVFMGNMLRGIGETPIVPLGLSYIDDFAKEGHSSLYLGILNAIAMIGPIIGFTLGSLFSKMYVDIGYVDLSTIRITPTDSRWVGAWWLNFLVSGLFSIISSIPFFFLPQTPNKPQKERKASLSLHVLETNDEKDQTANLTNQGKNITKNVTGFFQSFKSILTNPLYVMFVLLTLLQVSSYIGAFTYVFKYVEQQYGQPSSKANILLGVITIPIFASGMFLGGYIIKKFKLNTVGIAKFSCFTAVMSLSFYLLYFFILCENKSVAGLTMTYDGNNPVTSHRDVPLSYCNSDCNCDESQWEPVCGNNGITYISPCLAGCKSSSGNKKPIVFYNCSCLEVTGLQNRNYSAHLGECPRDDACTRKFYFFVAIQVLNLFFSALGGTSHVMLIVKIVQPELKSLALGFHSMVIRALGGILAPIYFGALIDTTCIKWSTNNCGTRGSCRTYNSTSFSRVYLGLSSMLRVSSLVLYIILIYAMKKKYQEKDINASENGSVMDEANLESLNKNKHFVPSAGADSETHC

[3] = system: peripheral blood mononuclear cells (PBMC); test: Anti-proliferative or immunosuppressive activity, BrdU incorporation in PHA-stimulated PBMC; assay type: cell-based; conditions: PHA 3 μg/ml, 60 hour compound treatment; read-out: EMV PBMC IC50
How it was run: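 BrdU ELISA read-out of DNA synthesis in freshly isolated PBMCs (two donors, 30,000 cells/well, X-VIVO 15). T-cell proliferation triggered with phytohemagglutinin at 3 μg/ml.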

[4] = target: CypF (Homo sapiens (Human), UniProt P30405); test: Inhibitor binding to cyclophilin proteins by SPR, CypF; conditions: 1:1 binding model
Chain of CypF (P30405 30-207): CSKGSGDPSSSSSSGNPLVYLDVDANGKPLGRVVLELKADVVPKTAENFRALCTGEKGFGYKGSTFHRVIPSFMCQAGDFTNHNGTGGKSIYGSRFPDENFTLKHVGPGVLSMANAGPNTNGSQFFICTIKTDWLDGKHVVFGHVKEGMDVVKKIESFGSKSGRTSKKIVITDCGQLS
How it was run: as §1

[5] = system: genotype 1b subgenomic HCV replicon in Huh7.5 cells; assay type: cell-based, hepatitis C virus; conditions: read-out: RPLN-1b IC50
How it was run: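 Replicon inhibition read as renilla luciferase signal versus DMSO controls after 72 h incubation, in Huh7.5 cells harbouring a genotype 1b subgenomic replicon; medium phenol red-free DMEM lacking G418. CC50 determined in parallel via Cell Titer-Glo.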

[6] = target: CYP3A4 (Homo sapiens (Human), UniProt P08684); test: Time-dependent inhibition of CYP3A4;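 also: Two-step in vitro assay, kobs derived from residual CYP3A4 activity versus preincubation time per concentration, then kinact and KI by nonlinear fit of kobs against concentration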
Chain of CYP3A4 (P08684 whole entry): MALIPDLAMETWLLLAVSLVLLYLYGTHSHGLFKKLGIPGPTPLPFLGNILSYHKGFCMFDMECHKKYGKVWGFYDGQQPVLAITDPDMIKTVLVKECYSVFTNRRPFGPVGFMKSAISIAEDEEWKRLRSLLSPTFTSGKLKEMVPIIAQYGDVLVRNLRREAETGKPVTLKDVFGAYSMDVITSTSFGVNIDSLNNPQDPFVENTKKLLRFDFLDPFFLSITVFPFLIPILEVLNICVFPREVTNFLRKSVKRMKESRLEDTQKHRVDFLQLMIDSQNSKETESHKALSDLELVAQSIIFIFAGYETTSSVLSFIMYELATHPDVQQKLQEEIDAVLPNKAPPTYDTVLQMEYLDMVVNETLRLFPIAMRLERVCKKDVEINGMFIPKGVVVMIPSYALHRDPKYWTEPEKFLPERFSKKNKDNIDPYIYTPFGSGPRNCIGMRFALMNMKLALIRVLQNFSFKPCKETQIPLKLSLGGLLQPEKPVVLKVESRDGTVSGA

[7] = target: Human MRP2 (Homo sapiens (Human), UniProt Q92887); test: MRP2 transporter vesicle assay; assay type: in vitro ADME
Chain of Human MRP2 (Q92887 whole entry): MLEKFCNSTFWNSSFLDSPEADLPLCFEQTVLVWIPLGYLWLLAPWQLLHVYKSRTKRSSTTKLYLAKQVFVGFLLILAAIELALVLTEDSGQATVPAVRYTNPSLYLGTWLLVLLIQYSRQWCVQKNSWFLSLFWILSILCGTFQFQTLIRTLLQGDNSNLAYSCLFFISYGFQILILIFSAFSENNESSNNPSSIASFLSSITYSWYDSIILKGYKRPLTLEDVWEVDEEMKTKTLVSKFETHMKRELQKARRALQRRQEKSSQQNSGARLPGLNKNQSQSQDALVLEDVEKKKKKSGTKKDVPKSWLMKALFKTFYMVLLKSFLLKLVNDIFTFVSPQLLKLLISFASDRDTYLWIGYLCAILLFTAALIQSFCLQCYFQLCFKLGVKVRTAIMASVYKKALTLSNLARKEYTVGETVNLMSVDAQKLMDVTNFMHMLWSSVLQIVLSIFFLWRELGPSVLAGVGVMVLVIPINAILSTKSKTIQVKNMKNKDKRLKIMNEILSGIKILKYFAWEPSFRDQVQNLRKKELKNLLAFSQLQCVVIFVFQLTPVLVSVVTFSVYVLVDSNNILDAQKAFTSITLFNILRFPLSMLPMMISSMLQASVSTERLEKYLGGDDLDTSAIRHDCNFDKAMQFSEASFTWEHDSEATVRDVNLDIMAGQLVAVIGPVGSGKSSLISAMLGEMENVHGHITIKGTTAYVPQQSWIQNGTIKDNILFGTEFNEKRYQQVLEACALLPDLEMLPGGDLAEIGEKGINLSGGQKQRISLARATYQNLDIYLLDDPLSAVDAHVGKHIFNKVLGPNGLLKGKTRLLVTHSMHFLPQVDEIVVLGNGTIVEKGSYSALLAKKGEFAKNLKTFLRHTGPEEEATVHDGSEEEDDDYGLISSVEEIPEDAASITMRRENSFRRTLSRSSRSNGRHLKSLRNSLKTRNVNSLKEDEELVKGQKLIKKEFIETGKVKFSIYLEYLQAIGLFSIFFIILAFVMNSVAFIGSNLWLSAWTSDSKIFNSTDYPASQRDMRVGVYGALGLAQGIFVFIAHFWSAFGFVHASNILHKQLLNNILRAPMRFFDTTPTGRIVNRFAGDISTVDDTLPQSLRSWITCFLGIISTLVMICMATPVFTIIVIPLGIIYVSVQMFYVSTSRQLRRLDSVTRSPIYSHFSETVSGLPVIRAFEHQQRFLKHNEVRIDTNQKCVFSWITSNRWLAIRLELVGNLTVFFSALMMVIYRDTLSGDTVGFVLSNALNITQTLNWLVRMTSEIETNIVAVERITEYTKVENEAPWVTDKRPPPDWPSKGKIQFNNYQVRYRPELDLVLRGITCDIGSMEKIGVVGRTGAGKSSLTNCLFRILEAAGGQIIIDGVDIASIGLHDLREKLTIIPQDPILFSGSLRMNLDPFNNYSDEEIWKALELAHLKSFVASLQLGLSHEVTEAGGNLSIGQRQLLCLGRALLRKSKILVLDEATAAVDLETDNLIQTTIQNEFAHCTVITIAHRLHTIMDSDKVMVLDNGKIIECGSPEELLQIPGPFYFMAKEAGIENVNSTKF
Method: Method 4: Measuring Hepatic Transporter Interactions […] […] MRP2 Assay: Human MRP2 inhibition was tested using a BD Gentest Transporter Vesicle Assay Kit. Inside-out vesicles were prepared from insect Sf9 cells infected with baculovirus expressing hMRP2. […] The percent remaining of ATP dependent uptake activity was calculated as uptake activity in the presence of inhibitor divided by the uptake activity in the absence of inhibitor.

[8] = target: cyclophilin A (CypA) (Homo sapiens (Human), UniProt P62937); test: Inhibitor binding to cyclophilin proteins by SPR, CypA; parameters: unit not given here; conditions: 1:1 binding model;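 also: Single-cycle kinetics on a Biacore T200, compound injected at several concentrations for 1 min each at 50 µL/min, then 10 min dissociation, in HEPES pH 7.4 buffer with 3% DMSO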
Chain of cyclophilin A (CypA) (P62937 whole entry): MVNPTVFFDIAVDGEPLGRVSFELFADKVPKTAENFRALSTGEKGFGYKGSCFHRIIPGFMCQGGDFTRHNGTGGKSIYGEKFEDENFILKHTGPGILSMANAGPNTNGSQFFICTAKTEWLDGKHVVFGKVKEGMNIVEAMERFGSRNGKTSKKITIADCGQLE

[9] = genotype 1b replicon, 72 h incubation

Row | Structure (SMILES) | CypB Kd [1] | IC50 [2] [µM] | IC50 [3] [µM] | CypF Kd [4] [µM] | IC50 [5] [µM] | NIM TDI kinact/Ki ([6]; probe substrate midazolam) [M⁻¹ s⁻¹] | IC50 [7] [µM] | CypA Kd [8] | Ki [6] [µM] | IC50 [5, 9] [µM]
1 | C/C=C/C[C@@H](C)[C@@H](O)[C@H]1C(=O)N[C@@H](CC)C(=O)N(C)[C@H](C)C(=O)N(C)[C@@H]([C@@H](C)COC)C(=O)N[C@@H](C(C)C)C(=O)N(C)[C@@H](CC(C)C)C(=O)N[C@@H](C)C(=O)N[C@H](C)C(=O)N(C)[C@@H](CC(C)C)C(=O)N(C)[C@@H](CC(C)C)C(=O)N(C)[C@@H](C(C)C)C(=O)N1C [Compound 2.2, 3-[D-Ala]-4-[(2S,3R)-4-methoxy-3-methyl-2-(methylamino)butanoyl]-cyclosporin] (cyclo(A[dA][NMeL][NMeL][NMeV][MeBmt][Abu][dNMeA][X77]V[NMeL])) | 0.8 | 1.9 | 12.6 | 0.0008 | 0.048 | 5 | 15 | 1.7 |  | 
2 | C/C=C/C[C@@H](C)[C@@H](O)[C@H]1C(=O)N[C@@H](CC)C(=O)N(C)[C@H](C)C(=O)N(C)[C@@H]([C@H](C)COCCN2CCOCC2)C(=O)N[C@@H](C(C)C)C(=O)N(C)[C@@H](CC(C)C)C(=O)N[C@@H](C)C(=O)N[C@H](C)C(=O)N(C)[C@@H](CC(C)C)C(=O)N(C)[C@@H](CC(C)C)C(=O)N(C)[C@@H](C(C)C)C(=O)N1C [Compound 2.8.1, 3-[D-Ala]-4-[(2S,3S)-3-methyl-2-(methylamino)-4-(2-morpholinoethoxy)butanoyl]-cyclosporin] (cyclo(A[dA][NMeL][NMeL][NMeV][MeBmt][Abu][dNMeA][NMeAbu(3S-Me,4-OC2H4Mor)]V[NMeL])) | 0.7 | 7.6 |  | 0.0007 |  |  | 23 | 1.4 | > 50 | 
3 | C/C=C/C[C@@H](C)[C@@H](O)[C@H]1C(=O)N[C@@H](CC)C(=O)N(C)[C@H](C)C(=O)N(C)[C@@H]([C@H](C)CN2CCN(S(C)(=O)=O)CC2)C(=O)N[C@@H](C(C)C)C(=O)N(C)[C@@H](CC(C)C)C(=O)N[C@@H](C)C(=O)N[C@H](C)C(=O)N(C)[C@@H](CC(C)C)C(=O)N(C)[C@@H](CC(C)C)C(=O)N(C)[C@@H](C(C)C)C(=O)N1C [Compound 2.5.5, 3-[D-Ala]-4-[(2S,3R)-3-methyl-2-(methylamino)-4-(4-(methylsulfonyl)piperazin-1-yl)butanoyl]-cyclosporin] (cyclo(A[dA][NMeL][NMeL][NMeV][MeBmt][Abu][dNMeA][X16]V[NMeL])) | 1.9 | 4.8 | 2.8 | 0.0017 |  |  | 13 | 3.3 |  | 0.066
4 | C/C=C/C[C@@H](C)[C@@H](O)[C@H]1C(=O)N[C@@H](CC)C(=O)N(C)[C@H](C)C(=O)N(C)[C@@H]([C@H](C)CS(C)(=O)=O)C(=O)N[C@@H](C(C)C)C(=O)N(C)[C@@H](CC(C)C)C(=O)N[C@@H](C)C(=O)N[C@H](C)C(=O)N(C)[C@@H](CC(C)C)C(=O)N(C)[C@@H](CC(C)C)C(=O)N(C)[C@@H](C(C)C)C(=O)N1C [Compound 2.4, 3-[D-Ala]-4-[(2S,3S)-3-methyl-2-(methylamino)-4-(methylsulfonyl)butanoyl]-cyclosporin] (cyclo(A[dA][NMeL][NMeL][NMeV][MeBmt][Abu][dNMeA][X4]V[NMeL])) | 0.6 | 1.4 | 1.9 | 0.0006 |  |  | 9 | 1.5 | > 50 | 0.095
5 | C/C=C/C[C@@H](C)[C@@H](O)[C@H]1C(=O)N[C@@H](CC)C(=O)N(C)[C@H](C)C(=O)N(C)[C@@H]([C@H](C)CCOC)C(=O)N[C@@H](C(C)C)C(=O)N(C)[C@@H](CC(C)C)C(=O)N[C@@H](C)C(=O)N[C@H](C)C(=O)N(C)[C@@H](CC(C)C)C(=O)N(C)[C@@H](CC(C)C)C(=O)N(C)[C@@H](C(C)C)C(=O)N1C [Compound 2.13, 3-[D-Ala]-4-[(2S,3R)-5-methoxy-3-methyl-2-(methylamino)pentanoyl]-cyclosporin] (cyclo(A[dA][NMeL][NMeL][NMeV][MeBmt][Abu][dNMeA][X2]V[NMeL])) | 0.8 | 2.3 | 2.6 | 0.0008 |  |  | 13 | 1.7 | > 50 | 0.041
6 | C/C=C/C[C@@H](C)[C@@H](O)[C@H]1C(=O)N[C@@H](CC)C(=O)N(C)[C@H](C)C(=O)N(C)[C@@H]([C@H](C)COCCOC(=O)N2CCN(C)CC2)C(=O)N[C@@H](C(C)C)C(=O)N(C)[C@@H](CC(C)C)C(=O)N[C@@H](C)C(=O)N[C@H](C)C(=O)N(C)[C@@H](CC(C)C)C(=O)N(C)[C@@H](CC(C)C)C(=O)N(C)[C@@H](C(C)C)C(=O)N1C (stereo in doubt) [Compound 2.9, 3-[D-Ala]-4-[(2S,3S)-3-methyl-2-(methylamino)-4-(2-((4-methylpiperazine-1-carbonyl)oxy)ethoxy)butanoyl]-cyclosporin] | 0.5 | 8.7 | 13.3 | 0.0004 |  |  | 30 | 0.9 | > 50 | 0.058
7 | C/C=C/C[C@@H](C)[C@@H](O)[C@H]1C(=O)N[C@@H](CC)C(=O)N(C)[C@H](C)C(=O)N(C)[C@@H]([C@H](C)COC)C(=O)N[C@@H](C(C)C)C(=O)N(C)[C@@H](CC(C)C)C(=O)N[C@@H](C)C(=O)N[C@H](C)C(=O)N(C)[C@@H](CC(C)C)C(=O)N(C)[C@@H](CC(C)C)C(=O)N(C)[C@@H](C(C)C)C(=O)N1C [Compound 2.1, 3-[D-Ala]-4-[(2S,3S)-4-methoxy-3-methyl-2-(methylamino)butanoyl]-cyclosporin] | 1.45 | 5.1 | 10.6 | 0.0013 |  |  | 14 | 2.05 | > 50 | 0.029
8 | C/C=C/C[C@@H](C)[C@@H](O)[C@H]1C(=O)N[C@@H](CC)C(=O)N(C)[C@H](C)C(=O)N(C)[C@@H]([C@H](C)COC(=O)N2CCN(C)CC2)C(=O)N[C@@H](C(C)C)C(=O)N(C)[C@@H](CC(C)C)C(=O)N[C@@H](C)C(=O)N[C@H](C)C(=O)N(C)[C@@H](CC(C)C)C(=O)N(C)[C@@H](CC(C)C)C(=O)N(C)[C@@H](C(C)C)C(=O)N1C [Compound 2.5.9, 3-[D-Ala]-4-[(2S,3S)-3-methyl-2-(methylamino)-4-((4-methylpiperazine-1-carbonyl)oxy)butanoyl]-cyclosporin] (cyclo(A[dA][NMeL][NMeL][NMeV][MeBmt][Abu][dNMeA][X5]V[NMeL])) | 0.5 | 6.7 | 17.7 | 0.0003 |  |  | 21 | 0.8 | > 50 | 0.09
9 | C/C=C/C[C@@H](C)[C@@H](O)[C@H]1C(=O)N[C@@H](CC)C(=O)N(C)[C@H](C)C(=O)N(C)[C@@H]([C@H](C)CN2CCOCC2)C(=O)N[C@@H](C(C)C)C(=O)N(C)[C@@H](CC(C)C)C(=O)N[C@@H](C)C(=O)N[C@H](C)C(=O)N(C)[C@@H](CC(C)C)C(=O)N(C)[C@@H](CC(C)C)C(=O)N(C)[C@@H](C(C)C)C(=O)N1C [Compound 2.5.2, 3-[D-Ala]-4-[(2S,3R)-3-methyl-2-(methylamino)-4-morpholinobutanoyl]-cyclosporin] (cyclo(A[dA][NMeL][NMeL][NMeV][MeBmt][Abu][dNMeA][X3]V[NMeL])) | 2.9 | 8.2 | 6.3 | 0.0022 |  |  | 18 | 4.3 | > 50 | 0.1
